# According to BindingDB's records for doi:10.7270/Q28C9TSJ (Nmmlsc, 2011):
# Molecular target: T1, Multidrug resistance protein CDR2 (Candida albicans (strain SC5314 / ATCC MYA-2876), UniProt P78595)
# T1 sequence (P78595 whole entry): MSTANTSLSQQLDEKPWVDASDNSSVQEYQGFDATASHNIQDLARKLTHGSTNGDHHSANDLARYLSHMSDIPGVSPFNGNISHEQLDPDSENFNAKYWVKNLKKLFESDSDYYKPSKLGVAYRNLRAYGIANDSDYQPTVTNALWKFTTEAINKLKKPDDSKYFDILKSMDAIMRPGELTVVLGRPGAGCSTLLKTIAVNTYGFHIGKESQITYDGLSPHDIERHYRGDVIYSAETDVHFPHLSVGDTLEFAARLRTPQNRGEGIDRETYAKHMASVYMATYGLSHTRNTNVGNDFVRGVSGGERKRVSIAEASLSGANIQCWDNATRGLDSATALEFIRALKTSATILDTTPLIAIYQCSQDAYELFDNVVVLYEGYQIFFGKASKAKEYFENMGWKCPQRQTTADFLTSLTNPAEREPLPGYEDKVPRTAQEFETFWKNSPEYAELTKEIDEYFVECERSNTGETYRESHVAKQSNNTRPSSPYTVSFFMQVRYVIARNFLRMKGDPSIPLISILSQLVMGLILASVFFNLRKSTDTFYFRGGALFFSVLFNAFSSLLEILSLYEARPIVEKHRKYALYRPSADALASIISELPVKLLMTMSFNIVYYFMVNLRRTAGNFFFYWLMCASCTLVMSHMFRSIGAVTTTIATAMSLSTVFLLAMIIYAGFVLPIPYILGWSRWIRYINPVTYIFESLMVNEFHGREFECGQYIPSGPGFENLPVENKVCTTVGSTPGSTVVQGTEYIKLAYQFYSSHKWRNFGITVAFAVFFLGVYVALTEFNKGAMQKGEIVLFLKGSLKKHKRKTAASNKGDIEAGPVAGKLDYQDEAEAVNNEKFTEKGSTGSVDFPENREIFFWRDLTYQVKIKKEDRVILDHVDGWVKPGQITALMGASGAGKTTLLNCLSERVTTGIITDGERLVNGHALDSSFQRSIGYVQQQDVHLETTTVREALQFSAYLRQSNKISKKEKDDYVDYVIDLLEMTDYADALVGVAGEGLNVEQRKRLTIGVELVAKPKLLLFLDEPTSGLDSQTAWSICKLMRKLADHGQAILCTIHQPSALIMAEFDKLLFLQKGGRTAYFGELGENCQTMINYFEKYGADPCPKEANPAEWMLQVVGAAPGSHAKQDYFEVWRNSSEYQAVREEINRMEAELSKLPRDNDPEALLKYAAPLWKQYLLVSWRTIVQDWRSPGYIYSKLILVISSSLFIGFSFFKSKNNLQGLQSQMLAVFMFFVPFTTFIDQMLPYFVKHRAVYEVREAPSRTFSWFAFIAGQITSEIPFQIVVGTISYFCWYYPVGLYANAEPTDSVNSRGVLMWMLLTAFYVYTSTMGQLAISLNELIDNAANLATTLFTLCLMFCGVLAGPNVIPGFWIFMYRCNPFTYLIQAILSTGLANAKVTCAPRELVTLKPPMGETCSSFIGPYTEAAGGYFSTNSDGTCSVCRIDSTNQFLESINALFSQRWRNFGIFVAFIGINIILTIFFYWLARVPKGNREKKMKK
# Test: CaCDR2 efflux pump inhibitors in yeast, dose response, S. cerevisiae AD1-8u, singleplex, Cherry Pick1 hits (AID 588604)
smiles,measurement,value
O=[N+]([O-])c1cc(CN=Nc2ccccn2)ccc1Cl,EC50,9.33 µM
